Experiment in all cases: radiometric 33PanQinase protein kinase assay
Common to all, as to assay type: biochemical
Holding throughout (conditions): 1 µM ATP

For one assay, the target named is T1, SRC (Homo sapiens, UniProt P12931).
T1 construct: host or cells: Sf9 (baculovirus)

A further assay addresses T2, CDK4/CycD1 (Homo sapiens, UniProt P11802).
T2 construct: host or cells: Sf9 (baculovirus)

Another assay has as its target T3, MET (Homo sapiens, UniProt P08581).
T3 construct: host or cells: Sf9 (baculovirus)

Another assay addresses T4, ERBB2 (Homo sapiens, UniProt P04626).
T4 construct: host or cells: Sf9 (baculovirus)

The target of a further assay is T5, EGF-R (Homo sapiens, UniProt P00533).
T5 construct: host or cells: Sf9 (baculovirus)
T5 sequence (P00533 25-1210): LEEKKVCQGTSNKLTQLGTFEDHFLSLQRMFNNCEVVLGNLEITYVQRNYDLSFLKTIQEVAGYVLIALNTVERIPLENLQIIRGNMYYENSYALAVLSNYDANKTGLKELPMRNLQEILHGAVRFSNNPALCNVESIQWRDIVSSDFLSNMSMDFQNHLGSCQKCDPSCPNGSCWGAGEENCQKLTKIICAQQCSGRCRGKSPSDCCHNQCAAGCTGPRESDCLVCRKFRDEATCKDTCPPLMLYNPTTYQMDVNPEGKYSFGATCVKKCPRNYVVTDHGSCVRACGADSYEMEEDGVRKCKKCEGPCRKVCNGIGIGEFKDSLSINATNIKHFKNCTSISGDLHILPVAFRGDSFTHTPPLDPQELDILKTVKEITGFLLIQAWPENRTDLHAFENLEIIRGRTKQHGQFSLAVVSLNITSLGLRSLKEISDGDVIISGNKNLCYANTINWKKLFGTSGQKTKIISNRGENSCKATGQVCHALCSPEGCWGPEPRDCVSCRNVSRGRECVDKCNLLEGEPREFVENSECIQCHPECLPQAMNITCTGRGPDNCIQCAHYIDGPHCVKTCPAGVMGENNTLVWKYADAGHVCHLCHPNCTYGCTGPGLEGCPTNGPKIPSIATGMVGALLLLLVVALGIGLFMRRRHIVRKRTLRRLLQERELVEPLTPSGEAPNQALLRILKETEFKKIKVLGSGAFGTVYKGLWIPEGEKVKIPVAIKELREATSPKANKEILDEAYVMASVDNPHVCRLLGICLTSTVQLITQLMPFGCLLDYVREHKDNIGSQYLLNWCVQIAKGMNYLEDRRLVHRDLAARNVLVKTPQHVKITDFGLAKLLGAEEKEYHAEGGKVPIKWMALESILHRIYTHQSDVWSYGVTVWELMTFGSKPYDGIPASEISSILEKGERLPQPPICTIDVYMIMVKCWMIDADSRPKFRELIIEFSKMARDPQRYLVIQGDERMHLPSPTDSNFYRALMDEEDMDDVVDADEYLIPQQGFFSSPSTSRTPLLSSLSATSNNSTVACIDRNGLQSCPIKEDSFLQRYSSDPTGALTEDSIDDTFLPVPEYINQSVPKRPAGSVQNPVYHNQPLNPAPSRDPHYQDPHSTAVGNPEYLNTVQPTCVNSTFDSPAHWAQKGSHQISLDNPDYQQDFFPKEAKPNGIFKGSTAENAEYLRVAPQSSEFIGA

The next assay concerns the target T6, AKT1 (Homo sapiens, UniProt P31749).
T6 construct: host or cells: Sf9 (baculovirus)

pIC50: −log10 of the molar value. Bounds are passed on as bounds.

For one compound, IC50 results are on record in publication PMC7998669, “7-(2-Anilinopyrimidin-4-yl)-1-benzazepin-2-ones Designed by a “Cut and Glue” Strategy Are Dual Aurora A/VEGF-R Kinase Inhibitors” (Molecules, 2021).

T6 sequence (P31749 whole entry): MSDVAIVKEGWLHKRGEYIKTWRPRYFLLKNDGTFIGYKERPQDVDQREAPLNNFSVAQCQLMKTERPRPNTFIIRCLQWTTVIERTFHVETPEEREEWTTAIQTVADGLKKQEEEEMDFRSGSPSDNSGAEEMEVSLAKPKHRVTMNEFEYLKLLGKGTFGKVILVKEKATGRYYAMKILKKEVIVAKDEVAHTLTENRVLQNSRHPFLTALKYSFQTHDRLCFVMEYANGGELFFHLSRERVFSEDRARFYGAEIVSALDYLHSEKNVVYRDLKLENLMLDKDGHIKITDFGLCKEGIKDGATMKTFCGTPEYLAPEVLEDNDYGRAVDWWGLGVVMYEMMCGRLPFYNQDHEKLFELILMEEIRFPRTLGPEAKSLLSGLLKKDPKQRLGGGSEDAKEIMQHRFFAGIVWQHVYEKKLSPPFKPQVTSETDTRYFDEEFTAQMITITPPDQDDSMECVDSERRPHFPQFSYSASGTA
T3 sequence (P08581 25-1390): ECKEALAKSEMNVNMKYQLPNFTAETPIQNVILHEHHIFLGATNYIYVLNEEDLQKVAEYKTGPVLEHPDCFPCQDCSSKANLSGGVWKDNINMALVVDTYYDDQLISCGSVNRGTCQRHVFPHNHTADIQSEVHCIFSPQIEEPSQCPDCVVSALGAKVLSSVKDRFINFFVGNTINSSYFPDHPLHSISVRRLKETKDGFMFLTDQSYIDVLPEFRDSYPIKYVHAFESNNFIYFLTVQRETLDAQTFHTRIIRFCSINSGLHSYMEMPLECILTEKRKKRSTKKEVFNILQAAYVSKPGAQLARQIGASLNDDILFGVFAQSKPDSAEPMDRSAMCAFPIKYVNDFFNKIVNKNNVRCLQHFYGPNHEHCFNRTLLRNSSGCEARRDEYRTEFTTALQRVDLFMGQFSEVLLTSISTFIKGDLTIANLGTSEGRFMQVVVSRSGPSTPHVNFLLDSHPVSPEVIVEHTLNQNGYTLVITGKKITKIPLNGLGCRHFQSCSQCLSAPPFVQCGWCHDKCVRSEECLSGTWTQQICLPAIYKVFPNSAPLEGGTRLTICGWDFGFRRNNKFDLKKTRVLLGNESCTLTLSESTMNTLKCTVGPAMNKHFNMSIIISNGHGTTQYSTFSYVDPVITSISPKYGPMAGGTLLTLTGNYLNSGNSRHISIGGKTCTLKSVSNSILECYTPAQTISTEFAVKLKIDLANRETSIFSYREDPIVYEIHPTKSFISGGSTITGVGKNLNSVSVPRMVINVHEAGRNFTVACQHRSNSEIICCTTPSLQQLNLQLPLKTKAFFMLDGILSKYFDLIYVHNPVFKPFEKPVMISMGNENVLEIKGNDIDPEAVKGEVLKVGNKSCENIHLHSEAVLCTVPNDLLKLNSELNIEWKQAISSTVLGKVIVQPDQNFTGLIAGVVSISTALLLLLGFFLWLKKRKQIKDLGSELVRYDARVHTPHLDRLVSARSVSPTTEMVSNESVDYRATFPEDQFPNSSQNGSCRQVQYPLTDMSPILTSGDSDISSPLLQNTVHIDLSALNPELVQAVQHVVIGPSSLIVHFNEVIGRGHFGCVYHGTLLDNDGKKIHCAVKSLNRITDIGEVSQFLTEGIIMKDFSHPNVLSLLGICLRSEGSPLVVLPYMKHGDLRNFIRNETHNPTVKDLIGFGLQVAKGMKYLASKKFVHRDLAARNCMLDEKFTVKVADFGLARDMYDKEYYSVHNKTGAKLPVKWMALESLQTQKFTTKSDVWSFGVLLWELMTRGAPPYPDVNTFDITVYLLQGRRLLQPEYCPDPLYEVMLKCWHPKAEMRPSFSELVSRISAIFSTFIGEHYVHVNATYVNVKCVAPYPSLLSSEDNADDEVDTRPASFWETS
T2 sequence (P11802 whole entry): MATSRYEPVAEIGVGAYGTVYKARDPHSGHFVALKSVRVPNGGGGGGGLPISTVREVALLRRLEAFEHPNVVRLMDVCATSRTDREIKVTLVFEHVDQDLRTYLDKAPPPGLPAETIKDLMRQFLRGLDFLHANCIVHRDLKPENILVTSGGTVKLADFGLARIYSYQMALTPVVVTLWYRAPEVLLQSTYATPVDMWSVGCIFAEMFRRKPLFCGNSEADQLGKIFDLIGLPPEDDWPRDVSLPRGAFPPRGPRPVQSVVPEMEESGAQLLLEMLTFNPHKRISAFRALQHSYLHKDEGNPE
T2 sequence (P24385 whole entry partner): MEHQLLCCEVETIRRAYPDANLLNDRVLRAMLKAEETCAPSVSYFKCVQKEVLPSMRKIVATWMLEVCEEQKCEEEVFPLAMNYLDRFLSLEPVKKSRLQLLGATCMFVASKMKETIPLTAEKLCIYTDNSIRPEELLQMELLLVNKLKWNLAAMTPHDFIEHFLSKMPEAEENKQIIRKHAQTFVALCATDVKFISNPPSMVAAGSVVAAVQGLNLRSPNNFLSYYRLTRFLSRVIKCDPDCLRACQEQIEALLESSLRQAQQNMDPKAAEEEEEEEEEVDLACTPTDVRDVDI
T4 sequence (P04626 23-1255): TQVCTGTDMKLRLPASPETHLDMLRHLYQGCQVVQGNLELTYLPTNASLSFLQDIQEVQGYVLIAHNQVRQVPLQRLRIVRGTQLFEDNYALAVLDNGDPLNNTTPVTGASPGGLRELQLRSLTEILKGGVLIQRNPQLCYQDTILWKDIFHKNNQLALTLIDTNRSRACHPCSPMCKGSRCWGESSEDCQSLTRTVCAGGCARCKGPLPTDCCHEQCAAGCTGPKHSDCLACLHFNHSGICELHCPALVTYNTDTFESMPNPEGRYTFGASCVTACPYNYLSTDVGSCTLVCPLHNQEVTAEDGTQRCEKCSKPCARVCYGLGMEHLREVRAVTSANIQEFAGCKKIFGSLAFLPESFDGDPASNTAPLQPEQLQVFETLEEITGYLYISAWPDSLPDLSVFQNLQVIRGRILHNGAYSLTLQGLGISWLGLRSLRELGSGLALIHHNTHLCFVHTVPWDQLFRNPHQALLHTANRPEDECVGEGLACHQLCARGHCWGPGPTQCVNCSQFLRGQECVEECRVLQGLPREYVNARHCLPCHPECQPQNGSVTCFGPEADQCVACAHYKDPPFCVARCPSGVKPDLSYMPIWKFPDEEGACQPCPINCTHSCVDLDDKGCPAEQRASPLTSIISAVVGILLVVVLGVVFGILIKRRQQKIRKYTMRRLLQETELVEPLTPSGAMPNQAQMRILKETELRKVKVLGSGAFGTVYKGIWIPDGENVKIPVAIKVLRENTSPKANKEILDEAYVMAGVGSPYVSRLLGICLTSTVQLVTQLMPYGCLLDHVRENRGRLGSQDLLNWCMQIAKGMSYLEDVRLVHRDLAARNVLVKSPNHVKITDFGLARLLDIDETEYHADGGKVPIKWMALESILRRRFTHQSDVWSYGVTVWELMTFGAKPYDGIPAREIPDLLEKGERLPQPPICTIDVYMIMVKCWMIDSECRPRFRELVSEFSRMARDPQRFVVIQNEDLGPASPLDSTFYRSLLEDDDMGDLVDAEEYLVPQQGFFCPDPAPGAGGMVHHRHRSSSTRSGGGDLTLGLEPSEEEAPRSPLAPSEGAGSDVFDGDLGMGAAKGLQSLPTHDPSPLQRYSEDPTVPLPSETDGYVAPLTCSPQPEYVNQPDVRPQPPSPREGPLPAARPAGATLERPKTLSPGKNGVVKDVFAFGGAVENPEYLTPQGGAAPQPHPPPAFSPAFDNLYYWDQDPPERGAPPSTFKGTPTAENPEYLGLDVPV

In the case of `O=C1CCCc2cc(-c3ccnc(Nc4ccccc4)n3)ccc2N1` [Compound 2a, 7-(2-Anilinopyrimidin-4-yl)-1,3,4,5-tetrahydro-2H-1-benzazepin-2-one], the pIC50 on SRC is 4.13; against CDK4/CycD1 it was 4.72; against MET, < 4.00; on ERBB2, < 4.00; on EGF-R, < 4.00; against AKT1, < 4.00.

In general, pIC50 refers to −log10 of the IC50, conventionally taken in molar units. A high value points to a low IC50.
